# Source: publication PMC8300687, “A Fine-Tuned Lipophilicity/Hydrophilicity Ratio Governs Antibacterial Potency and Selectivity of Bifurcated Halogen Bond-Forming NBTIs” (Antibiotics, 2021)
# Where two headings read alike, the source gives them in different places.
# Tests used:
# [1] = target: T1, S. aureus DNA gyrase (Staphylococcus aureus, UniProt P20831); experiment: biochemical; assay type: biochemical; conditions: for LE DNA Gyrase S. aureus: LE = (1.37/HA) × pIC50; for IC50: fluorescence plate supercoiling assay, mean of two to four measurements
# T1 construct: purchased Inspiralis (Norwich, UK)
# Protocol: (§1) A Gyrase Supercoiling High Throughput Plate assay kit, purchased from Inspiralis (Norwich. UK) was used to determine IC50 values of compounds on S. aureus and E. coli. […] Biotinylated oligonucleotide in wash buffer was immobilized onto the wells, and the excess oligonucleotide was washed off with wash buffer and ultrapure water. […] The reactions were stopped by adding the TF buffer (50 mM NaOAc (pH 4.7), 50 mM NaCl, and 50 mM MgCl2) to allow the triplex formation (biotin-oligonucleotide-plasmid) for additional 30 min. Afterward, the unbound plasmid was washed off using TF buffer, and the solution of Promega Diamond dye in T10 buffer (10 mM Tris-HCl (pH 8.0), 1 mM EDTA) was added. […] IC50 value represents the mean of two to four independent measurements.
# [2] = tested on: E. coli N43 (CGSC# 5583); experiment: MIC broth microdilution, E. coli N43; assay type: cell-based; conditions: Escherichia coli
# Protocol: (§2) Antimicrobial testing was carried out by the broth microdilution method in 96-well plate format following the Clinical and Laboratory Standards Institute (CLSI) guidelines and European Committee on Antimicrobial Susceptibility Testing (EUCAST) recommendations. Bacterial suspension of specific bacterial strain equivalent to 0.5 McFarland turbidity standard was diluted with cation-adjusted Mueller Hinton broth with TES (Thermo Fisher Diagnostic, Landsmeer, The Netherlands), to obtain a final inoculum of 10^5 CFU/mL. Compounds dissolved in DMSO and inoculum were mixed together and incubated for 18–20 h at 35 °C. Suspensions of Mycobacterium sp. were prepared into a tube of Middelbrook 7H9 broth supplemented with 5% OADC (Thermo Scientific, Trek Diagnostic Systems, West Sussex, UK) and incubated for at least 10 days. After incubation the minimal inhibitory concentration (MIC) values were determined by visual inspection as the lowest dilution of compounds showing no turbidity. Tetracycline was used as a positive control on every assay plate.
# [3] = target: T2, E. coli DNA gyrase (Escherichia coli, UniProt P0AES4); experiment: Gyrase Supercoiling High Throughput Plate assay, E. coli; assay type: biochemical; conditions: for LE DNA Gyrase E. coli: LE = (1.37/HA) × pIC50
# T2 construct: purchased Inspiralis (Norwich, UK)
# Protocol: as §1
# [4] = tested on: M. avium; experiment: MIC, M. avium; assay type: cell-based
# Protocol: as §2
# [5] = tested on: MRSA (QA-11.2); experiment: MIC broth microdilution, MRSA QA-11.2; assay type: cell-based, methicillin-resistant S. aureus; conditions: Staphylococcus aureus, 20 h, read-out: MIC MRSA (QA-11.2)
# Protocol: as §2
# [6] = Equilibrium solubility at pH 6.8; conditions: for solubility thermodynamic at 24 h: phosphate buffered saline, 37 °C, pH 6.8, aqueous buffer, thermodynamic from solid; for solubility at pH 6.8 in words: pH 6.8, single-dose in 500 mL
# Protocol: (§3) Prior to the measurements of solubility and permeability isocratic HPLC methods were developed. […] The individual method parameters for each compound are given in the Supplementary Materials Table S1.
# The vials were then placed in a homogenizer (Next Advance Bullet Blender, Troy, NY, USA) for 5 min ad speed setting “2” after which they were kept in a thermostated shaker (Tehtnica HeatMix, Domel, Slovenia) at 37 °C and 1200 RPM for 24 h. […] Twenty µL of these solutions were injected for the HPLC analysis by the described methods (Supplementary Materials Table S1). External standards for calibration were made in a mobile phase with 5% acetonitrile in a range of 30–90 mg/L and injected at 20 µL injection volumes.
# [7] = tested on: S. alachua RDK 030c (QA-1482/04); experiment: MIC broth microdilution, S. alachua; assay type: cell-based
# Protocol: as §2
# [8] = tested on: S. agalactiae RDK 047 (QA-990/02); experiment: MIC broth microdilution, S. agalactiae; assay type: cell-based
# Protocol: as §2
# [9] = tested on: E. coli (QA-11.8); experiment: MIC broth microdilution, E. coli QA-11.8; assay type: cell-based
# Protocol: as §2
# [10] = tested on: HUVEC; experiment: Metabolic activity assessment (cytotoxicity), HUVEC; assay type: cell-based; conditions: Homo sapiens, metabolic activity after 72 h treatment
# Protocol: Cells of the HepG2 line (ATCC® HB-8065™) and HUVEC (ATCC® CRL-1730™) were cultured in Dulbecco’s Modified Eagle Medium (DMEM; Sigma-Aldrich, St. Louis, MO, USA) supplemented with 10% heat-deactivated FBS (Gibco, Grand Island, NE, USA), 2 mM L-glutamine, 100 U/mL penicillin, 100 μg/mL streptomycin (all from Sigma-Aldrich, St. Louis, MO, USA) in a humidified chamber at 37 °C and 5% CO2. The experiments were carried out on passages 7–9 for both cell lines. The tested compounds were dissolved in DMSO and further diluted in culture medium to a desired final concentration. Cells were seeded into 96-well plates at 8 × 10^4 cells/mL (100 μL/well) and incubated for 24 h to attach onto the wells. Cells were treated with 1 μM and 50 μM of each compound of interest or corresponding vehicle as control. […] The metabolic activity was assessed after 72 h treatment using the CellTiter 96 Aqueous One Solution Cell Proliferation Assay (Promega, Madison, WI, USA), in accordance with the manufacturer’s instructions. The absorbance was measured at 492 nm on an automated microplate reader BioTek Synergy HT (BioTek Instruments, Inc., Winooski, VT, USA). Data are presented as the percentage of metabolic activity of control cells stimulated with vehicle or as IC50 value (mean ± SD) from two independent experiments, each conducted in duplicate or triplicate. IC50 values were calculated by a non-linear regression model using Graph Pad Prism 7 software.
# [11] = tested on: MRSA (QA-11.6); experiment: MIC broth microdilution, MRSA QA-11.6; assay type: cell-based, methicillin-resistant S. aureus; conditions: Staphylococcus aureus, read-out: MIC MRSA (QA-11.6)
# Protocol: as §2
# [12] = in vitro; conditions: for Papp at 4 h: PAMPA
# Protocol: as §3
# A 96-well precoated three-layer PAMPA plates (Corning® Gentest™ Pre-coated PAMPA Plate System, Corning, NY, USA) were used according to the manufacturer’s instructions and as described previously with 300 µL of the donor solutions in the bottom compartment and 200 µL of the acceptor solution (pH 7.4 PBS) in the upper compartment at 37 °C and a 4-h incubation time. The initial and end donor solutions were injected at a 5 µL injection volume. The initial donor solutions were also diluted 100-fold and injected at a 100 µL injection volume to serve as external references for the end acceptor solutions which were injected at the same injection volume. The permeability calculations were made with a manufacturer-provided Excel spreadsheet directly from the measured peak areas accounting for the relevant dilutions and injection volumes.
# [13] = read-out: E. coli N43 MIC in molar
# [14] = read-out: MIC E. coli N43 (CGSC# 5583)
# [15] = Mycobacterium avium; read-out: MIC M. avium
# [16] = resistant to cefoxitin, chloramphenicol, clindamycin, linezolid, tetracycline, thiamulin, trimethoprim
# [17] = Salmonella; read-out: MIC S. alachua RDK 030c (QA-1482/04)
# [18] = Streptococcus agalactiae; read-out: MIC S. agalactiae RDK 047 (QA-990/02)
# [19] = Escherichia coli, 20 h; read-out: MIC E. coli (QA-11.8)
# [20] = resistant to cefoxitin, gentamicin, sulfamethoxazole, tetracycline
# T1 sequence (P20831 whole entry): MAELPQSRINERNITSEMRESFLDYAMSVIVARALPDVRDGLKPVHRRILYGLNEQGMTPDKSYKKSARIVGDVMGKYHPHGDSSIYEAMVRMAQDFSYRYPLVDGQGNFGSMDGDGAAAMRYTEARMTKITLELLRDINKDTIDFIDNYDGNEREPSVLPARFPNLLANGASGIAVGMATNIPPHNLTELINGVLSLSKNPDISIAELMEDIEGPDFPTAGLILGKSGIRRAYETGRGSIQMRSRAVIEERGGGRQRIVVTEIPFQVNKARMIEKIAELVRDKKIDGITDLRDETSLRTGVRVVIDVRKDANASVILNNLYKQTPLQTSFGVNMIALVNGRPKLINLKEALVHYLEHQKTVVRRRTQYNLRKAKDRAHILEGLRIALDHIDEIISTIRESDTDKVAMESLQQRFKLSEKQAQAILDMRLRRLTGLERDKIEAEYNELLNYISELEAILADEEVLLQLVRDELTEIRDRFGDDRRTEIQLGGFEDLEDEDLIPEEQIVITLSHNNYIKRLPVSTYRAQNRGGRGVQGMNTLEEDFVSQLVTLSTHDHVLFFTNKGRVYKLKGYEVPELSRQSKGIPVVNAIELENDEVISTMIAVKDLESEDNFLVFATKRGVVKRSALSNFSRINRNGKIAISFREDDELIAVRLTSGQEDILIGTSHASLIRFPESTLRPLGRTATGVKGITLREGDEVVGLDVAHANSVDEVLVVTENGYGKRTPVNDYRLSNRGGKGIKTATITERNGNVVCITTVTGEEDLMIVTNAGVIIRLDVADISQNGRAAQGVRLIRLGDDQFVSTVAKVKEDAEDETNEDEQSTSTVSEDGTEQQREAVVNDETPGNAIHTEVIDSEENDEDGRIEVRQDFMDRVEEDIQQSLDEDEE
# T1 sequence (P0A0K8 whole entry partner): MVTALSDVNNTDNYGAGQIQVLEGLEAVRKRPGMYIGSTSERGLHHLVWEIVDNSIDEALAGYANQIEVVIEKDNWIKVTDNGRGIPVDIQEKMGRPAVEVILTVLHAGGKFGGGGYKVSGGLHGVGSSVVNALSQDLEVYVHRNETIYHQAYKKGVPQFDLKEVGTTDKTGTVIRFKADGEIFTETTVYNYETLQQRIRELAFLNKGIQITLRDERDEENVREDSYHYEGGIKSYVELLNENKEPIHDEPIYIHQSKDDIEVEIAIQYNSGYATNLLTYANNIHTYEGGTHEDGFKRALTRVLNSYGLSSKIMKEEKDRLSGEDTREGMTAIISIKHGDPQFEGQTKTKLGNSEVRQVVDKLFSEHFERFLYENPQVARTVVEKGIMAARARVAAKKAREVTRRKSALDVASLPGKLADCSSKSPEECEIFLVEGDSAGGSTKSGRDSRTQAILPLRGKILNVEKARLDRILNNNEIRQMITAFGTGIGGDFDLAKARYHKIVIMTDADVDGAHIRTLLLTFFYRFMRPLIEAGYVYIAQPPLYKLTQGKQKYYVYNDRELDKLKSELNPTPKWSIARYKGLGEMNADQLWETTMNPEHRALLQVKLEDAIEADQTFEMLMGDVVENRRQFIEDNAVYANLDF
# T2 sequence (P0AES4 whole entry): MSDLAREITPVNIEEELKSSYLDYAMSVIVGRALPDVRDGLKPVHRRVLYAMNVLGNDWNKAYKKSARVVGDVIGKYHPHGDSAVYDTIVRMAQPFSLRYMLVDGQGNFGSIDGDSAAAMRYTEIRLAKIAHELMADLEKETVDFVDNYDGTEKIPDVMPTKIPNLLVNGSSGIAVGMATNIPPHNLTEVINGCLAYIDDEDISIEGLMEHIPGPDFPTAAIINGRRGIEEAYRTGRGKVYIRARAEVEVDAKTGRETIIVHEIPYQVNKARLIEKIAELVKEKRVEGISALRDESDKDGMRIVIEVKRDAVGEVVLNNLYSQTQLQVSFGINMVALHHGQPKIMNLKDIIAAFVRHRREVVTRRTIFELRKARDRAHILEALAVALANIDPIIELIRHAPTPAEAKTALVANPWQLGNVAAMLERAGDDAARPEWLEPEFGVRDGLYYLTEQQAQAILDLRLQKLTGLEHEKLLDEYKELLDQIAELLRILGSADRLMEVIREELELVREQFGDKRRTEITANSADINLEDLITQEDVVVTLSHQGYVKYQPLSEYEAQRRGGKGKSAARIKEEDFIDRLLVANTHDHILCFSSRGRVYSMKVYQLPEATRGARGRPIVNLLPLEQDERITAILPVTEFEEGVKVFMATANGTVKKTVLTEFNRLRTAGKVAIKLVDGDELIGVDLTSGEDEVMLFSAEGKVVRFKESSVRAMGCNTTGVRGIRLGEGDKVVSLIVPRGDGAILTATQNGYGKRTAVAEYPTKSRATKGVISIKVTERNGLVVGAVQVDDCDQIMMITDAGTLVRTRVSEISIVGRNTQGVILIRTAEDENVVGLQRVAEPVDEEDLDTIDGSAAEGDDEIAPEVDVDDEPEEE
Compound,LE DNA Gyrase S. aureus [1],IC50 [1] [µM],"MIC [2, 13] [µM]","MIC [2, 14] [µg/mL]",IC50 [3] [µM],LE DNA Gyrase E. coli [3],"MIC [4, 15] [µg/mL]","MIC [5, 16] [µg/mL]",solubility thermodynamic at 24 h [6] [µg/mL],"MIC [7, 17] [µg/mL]","MIC [8, 18] [µg/mL]","MIC [9, 19] [µg/mL]",IC50 [10] [µM],"MIC [11, 20] [µg/mL]",Papp at 4 h [12] [×10⁻⁶ cm/s],Papp at 4 h ([12]; pH 7.4) [×10⁻⁶ cm/s],solubility at pH 6.8 in words [6],other results
"COc1ccc2nccc(CCN3CCC(NCc4cnn(-c5ccccc5)c4)CC3)c2n1 [Compound 5, 1-(2-(6-Methoxy-1,5-naphthyridin-4-yl)ethyl)-N-((1-phenyl-1H-pyrazol-4-yl)methyl)piperidin-4-amine]",0.27,0.33 ± 0.08,2.26,1,3 ± 0.55,0.23,64,1,381,64,1,2,10.7 ± 0.01,1,> 2.7,25.5,,improvement in S. aureus gyrase IC50 compared to its predecessor ([1]; vs methoxy-quinoline cyclohexyl-amide predecessor): 2.5 fold; increase in potency on E. coli DNA gyrase ([3]; vs most potent compound from previous study [18]): Approximately 4 fold
"COc1ccc2nccc(CCN3CCC(NCc4c(C)nc5c(C)cccn45)CC3)c2n1 [Compound 6, N-((2,8-Dimethylimidazo[1,2-a]pyridin-3-yl)methyl)-1-(2-(6-methoxy-1,5-naphthyridin-4-yl)ethyl)piperidin-4-amine]",,> 100,288,128,> 100,,,,797,,,,> 50,,> 2.7,5.6,,"MIC ([4]; Mycobacterium avium, read-out: MIC M. avium): > 128 µg/mL; MIC [5]: > 128 µg/mL; MIC ([7]; Salmonella, read-out: MIC S. alachua RDK 030c (QA-1482/04)): > 128 µg/mL; MIC ([8]; Streptococcus agalactiae, read-out: MIC S. agalactiae RDK 047 (QA-990/02)): 128 µg/mL; MIC ([9]; Escherichia coli, 20 h, read-out: MIC E. coli (QA-11.8)): > 128 µg/mL; MIC [11]: > 128 µg/mL"
"COc1ccc2nccc(CCN3CCC(NCc4cnn(-c5ccccc5)n4)CC3)c2n1 [Compound 8, 1-(2-(6-Methoxy-1,5-naphthyridin-4-yl)ethyl)-N-((2-phenyl-2H-1,2,3-triazol-4-yl)methyl)piperidin-4-amine]",0.27,0.24 ± 0.04,2.26,1,7.83 ± 0.55,0.21,32,0.5,106,> 128,0.5,32,39.4 ± 5.47,0.5,> 2.7,10.6,,
"COc1ccc2nccc(CCN3CCC(NCc4cnn(C(C)C)c4)CC3)c2n1 [Compound 9, N-((1-Isopropyl-1H-pyrazol-4-yl)methyl)-1-(2-(6-methoxy-1,5-naphthyridin-4-yl)ethyl)piperidin-4-amine]",0.31,0.16 ± 0.01,0.61,0.25,2.95 ± 0.56,0.25,128,1,7550,64,0.5,8,> 50,1,> 2.7,3.3,soluble at this pH in any conceivable single-dose,
"C=CCn1cc(CNC2CCN(CCc3ccnc4ccc(OC)nc34)CC2)cn1 [Compound 10, N-((1-Allyl-1H-pyrazol-4-yl)methyl)-1-(2-(6-methoxy-1,5-naphthyridin-4-yl)ethyl)piperidin-4-amine]",0.27,1.1 ± 0.17,2.46,1,16.7 ± 0.93,0.22,> 128,4,5700,128,4,16,> 50,4,> 2.7,4.1,soluble at this pH in any conceivable single-dose,
COc1ccc2nccc(CCN3CCC(NCc4ccc(CO)cc4)CC3)c2n1 [Compound 16],0.24,4.39 ± 0.55,39.4,16,56.6 ± 3.32,0.19,> 128,8,3390,> 128,8,128,,4,,1.5,soluble at this pH in any conceivable single-dose,IC50 ([10]; 72 h): > 50 µM; PAMPA permeability classification [low/high] ([12]; relative to reference drugs): int erm ediat e
"COc1ccc2nccc(CCN3CCC(NCc4ccc(OC(F)F)c(OC)c4)CC3)c2n1 [Compound 19, N-(4-(Difluoromethoxy)-3-methoxybenzyl)-1-(2-(6-methoxy-1,5-naphthyridin-4-yl)ethyl)piperidin-4-amine]",0.26,0.35 ± 0.03,2.12,1,3.9 ± 0.06,0.22,128,2,79,128,< 1,4,,2,> 2.7,9,,IC50 ([10]; 72 h): 19.8 ± 2.58 µM
